# Test results taken from PubChem BioAssay AID434996 (Southern Research Specialized Biocontainment Screening …, 2010).
# The source made the active and inactive calls.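 The calls were made as follows: active = inhibition above 30% at one or more tested concentrations in the dose response; inactive = inhibition below 30% at every tested concentration.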
# Test system: not listed separately
# Assay: PhoP regulon inhibitors in S. Typhimurium, SAR follow-up, synthesized compounds, round 3, GFP (AID 434996)
# Conditions: S. Typhimurium PhoP-regulated promoter GFP reporter, 4 h; at 150 µM (top of the series)
row,Structure (SMILES),inhibition
1,N#Cc1ccc(NC(=S)NCc2ccc(Cl)cc2)cc1,-4.09% (inactive)
2,Cc1ccccc1CNC(=S)Nc1ccncc1,15.3% (inactive)
3,O=C(Nc1ccc(Cl)cc1)N1CCCN(Cc2ccccc2Br)C1,26.3% (inactive)
4,O=C(Nc1cccc(F)c1)N1CCCN(Cc2ccccc2F)C1,23.5% (inactive)
5,O=C(Nc1cccc(I)c1)N1CCCN(Cc2ccccc2F)C1,20.6% (inactive)
6,Cc1cccc(NC(=O)N2CCCN(Cc3ccccc3F)C2)c1,21.2% (inactive)
7,N#Cc1ccccc1NC(=S)NCc1ccc(Cl)cc1,-0.55% (inactive)
8,O=C(Nc1cccc(C(F)(F)F)c1)N1CCCN(Cc2ccccc2F)C1,8.93% (inactive)
9,Cc1ccc(NC(=O)N2CCCN(Cc3ccccc3F)C2)cc1,-3.01% (inactive)

# Test system: S. Typhimurium PhoP-regulated promoter GFP reporter, 4 h
# Assay: as above
# Conditions: not given
row,Structure (SMILES),IC50 [µM]
1,O=C(Nc1ccc(I)cc1)N1CCCN(Cc2ccccc2F)C1,148
2,O=C(Nc1ccc(Cl)cc1)N1CCCN(Cc2ccc(Br)cc2)C1,135
3,S=C(NCCc1ccc(Cl)cc1)Nc1ccncc1,29.2
